What was measured:
[1] = test system: NWS/G70C influenza A virus
influenza strain G70C = format: cell-based

Which results are given for “GG167-Bovine Serum Albumin-Biotin conjugate [Compound 3a]”?
amount of virus clearly detected [1]: 10^6 pfu; compound concentration giving the best result [1]: 0.1 µM; detection signal at higher concentrations of compound [1]: the signal was weaker; detection signal at lower concentrations [1]: the detection signal was also weaker

With Fetuin as the substance, how does the “Lowest Concentration (μM of GG167 units) that Inhibited Agglutination, G70C” value (influenza strain G70C) read?
The value was 0.73 µM.
